Source: patent US6242428A, “Nucleoside analogs and uses in treating Plasmodium falciparum infection” (Unisearch Limited, priority 1998, dated 2001)
Entries after “also recorded” stand apart in the source; their conditions may differ. Like-named read-outs stand apart in the source and are kept apart here.

How the values were obtained:
[1] = molecular target: P. falciparum; assay: In vitro toxicity against P. falciparum in culture (radiolabelled hypoxanthine incorporation / lactate dehydrogenase assay); assay type: cell-based, Plasmodium falciparum, FCQ27; conditions: for toxicity against P. falciparum, in words: statement in the transport and metabolism study
Experimental: P. falciparum, FCQ27, was maintained in culture using the techniques described by Trager & Jensen (W. Traqer and J. B. Jensen, Science, 193 673-675 (1976)). Cultures containing 2% hematocrit suspensions of parasitized human type O^+ erythrocytes in RPMI 1640 medium, supplemented with 25 mM HEPES-KOH, pH 7.2, 25 mM NaHCO3 and 10% human type O^+ serum (v/v) are maintained in modular incubator chambers at 37° C. in a gas mixture of 5% O2, 5% CO2 and 90% N2. The isolate of P. falciparum used in these experiments was FCQ27, routinely maintained in synchronized or asynchronous in vitro cultures at low hematocrit.
The potential toxicity of nucleoside analogues against P. falciparum in culture was tested in microtitre plates over the range of drug concentrations for 24 hours. The procedures for monitoring parasite viability is well established (A. M. Gero, H. V. Scott, W. J. O'Sullivan and R. I. Christopherson, Mol. Biochem. Parasitol. 34, 87-89 (1989)) and is based on radiolabelled hypoxanthine or isoleucine incorporation. The incorporation of [G-^3 H]hypoxanthine into the nucleic acids of P. falciparum was used to assess the viability of the parasite in vitro. Microculture plates were prepared with each well containing 225 μl of a 2% hematocrit culture of asynchronous parasited erythrocytes (1% parasitized cells). Each plate, containing varying concentrations of the drug to be studied (up to 200 μM final concentration for initial screen), was incubated for 24 h at 37° C. in a gas mixture of 5% O2, 5% CO2 and 90% N2, at which point [G-^3 H] hypoxanthine was added to each well and the incubation continued under identical conditions for a further 18-20 h. The control infected cells (i.e. without drug), routinely reached a parasitemia of 6-8% before harvesting. Expediency was aided by 96-well plate counter using lactate dehydrogenase for the drug susceptibility assay (L. K. Basco, F. Marguet, M. T. Makler and J. Lebbras, Exp. Parasitol. 80, 260-271 (1995); M. T. Makler and D. J. Hinrichs; Am. J. Trop. Med. Hyg. 48, 205-210 (1993)). This assay gave the identical results to the hypoxanthine technique. In addition, for each experiment, microscopic counting of Giemsa stained thin slides was used as a control.
The biological screen involved evaluation of the compounds against the protozoan P. falciparum in in vitro culture. The range of drug concentrations was used independently by two assays. One, radiolabelled hypoxanthine incorporation into the nucleic acid of P. falciparum, and the other, more expedient assay, a 96-well plate susceptibility assay using lactate dehydrogenase. Both assays gave identical results. In addition, microscopic counting of Giemsa stained thin slides was used as a control. Examples of experimental curves are attached as Appendix 2. The biological tests were done at several concentrations. The highest concentration was 200 μM, the compounds were considered active at concentrations less than 40 μM.

[2] = test system: P. falciparum infected erythrocytes (trophozoites); assay type: in vitro ADME, human erythrocytes infected with Plasmodium falciparum
Experimental: The metabolism of the L-nucleoside conjugates was studied by HPLC analysis. The primary aim was to determine their ability to be catabolized by parasite purine salvage enzymes. Some effect on the purine metabolic pools was also observed.
For each HPLC determination 200 μL of packed cells of 80-90% trophozoite infected cells were used. These were isolated from in vitro cultures by synchronization of the parasites in in vitro cultures using sterile D-sorbitol (L. Lambros and J. P. Vanderberg, Parasitol. 65, 418-420 (1979)) followed by separation of the trophozoites from non infected erythrocytes by Percoll gradients as described previously (A. M. Gero, H. V. Scott, W. J. O'Sullivan and R. I. Christopherson, Mol. Biochem. Parasitol. 34, 87-89 (1989)). Trophozoites were incubated at 37° C. for 2 hours with each compound to be tested. Compounds were incubated with both whole infected cells as whole and lyzed uninfected normal erythrocytes to determine:
a) entry to the cell (whether they were transported);
Drug incubation was terminated by centrifugation through silicon oil using the method of Upston and Gero (J. M. Upston and A. M. Gero, Biochem. Biophys. Acta. 1236, 249-258 (1995)). This procedure separated intact trophozoites from extracellular non-transported drug solution.
The metabolism of nucleosides with potential chemotherapeutic activity was assessed by the analysis of cytoplasmic samples by reverse phase ion-pair high performance liquid chromatography (R. S. Toguzov, Y. V. Tikhonov, A. M. Pimenov, V. Prokudin, Journal of Chromatography, I. Biomedical Appl. 434, 447-453 (1988)). Nucleotides, nucleosides and bases were separated by this HPLC method.
It has been established that transport and uptake in parasite invaded cells is different from that of normal blood erythrocytes (A. M. Gero & A. M. Wood, In: Pyrine & Pyrimidine Methabolism in Man VII, Part A. (R. A. Harkness et al., Eds) Plenum Press, NY, 169-172 (1991)). Invasion by the malaria parasite comprises the cell membrane, allowing penetration of unnatural substances of various size and shape, whereas normal cells are very selective in uptake. It was shown that L-nucleosides and their derivatives easily penetrate invaded cells, while they have a very slow rate of uptake into normal cells, if they enter at all. In order to obtain preliminary data on transport, uptake and metabolism, the HPLC method was used to analyze the following 10 Lipitek compounds: L-101, L-103, L-109, L-111, L-117, L-133, L-138, GCl 1007, GCl 1027, GCl 1069.
These compounds were chosen for the identification of possible metabolites. In this experiment the compounds were incubated with both whole infected cells, and with whole and lysed uninfected cells, followed by the separation of unreacted compound and HPLC analysis.

[3] = Table 1, 24 h drug exposure, up to 200 μM, read-out: IC50
[4] = Plasmodium falciparum, 24 h, Table 1, 24 h drug exposure, up to 200 μM, read-out: IC50
[5] = Plasmodium falciparum, Table 5, β-D-FUdR and possible metabolic products, read-out: IC50
[6] = Plasmodium falciparum, Table 2, FUdR linkage position 5', read-out: IC50
[7] = Plasmodium falciparum, Table 3, α-L configuration of the L-nucleoside, read-out: IC50

Molecule: α-L-FUdR 5'SATE [B06]
- IC50 [1, 3]: 150 µM

Molecule: β-L-dU, NBMPR [L-145]
- IC50 [1, 3]: > 200 µM

Molecule: O=c1[nH]cc(F)c(=O)[nH]1 [5FUracil, 5-fluorouracil, reference compound]
- IC50 ([1]; Plasmodium falciparum): 6 µM

Molecule: O=c1[nH]cnc2c1ncn2[C@@H]1C[C@@H](O)[C@H](CO)O1 [GCI 1037, β-L-dI]
- IC50 [1, 4]: > 200 µM

Molecule: Nc1ncnc2c1ncn2[C@@H]1O[C@@H](CO)[C@H](O)[C@@H]1O [GCI 1066, α-L-A]
- IC50 ([1]; Plasmodium falciparum, 24 h): > 200 µM

Molecule: β-D-FUdR 3'-5'SATE [B03]
- IC50 [1, 3]: 6 µM

Molecule: O=c1[nH]c(=O)n([C@H]2C[C@H](O)[C@@H](COP(=O)(O)O)O2)cc1F [β-D-5'-FUdRmP, β-D-FUdR monophosphate, reference compound]
- IC50 [1, 5]: 50 µM

Molecule: Nc1ncnc2c1ncn2[C@@H]1C[C@@H](OP(O)(=S)OC[C@H]2O[C@@H](n3cc(F)c(=O)[nH]c3=O)C[C@@H]2O)[C@H](CO)O1 (stereo partly drawn) [L-138-thio, β-L-dA, β-D-FUdR, S = P-O]
- In vitro activity against P. falciparum, in words [1]: reduced dramatically
- IC50 ([1]; Plasmodium falciparum, 24 h): 100 µM

Molecule: O=[N+]([O-])c1ccc(CSc2ncnc3c2ncn3[C@@H]2O[C@H](CO)[C@@H](O)[C@H]2O)cc1 [NBMPR, nitrobenzylthionosine, reference compound]
- IC50 [1, 4]: 100 µM

Molecule: β-L-mercapto-G [GCI 1034]
- IC50 [1, 3]: > 200 µM

Molecule: Nc1nc2c(ncn2[C@@H]2C[C@@H](O)[C@H](CO)O2)c(=O)[nH]1 [GCI 1070, β-L-dG]
- IC50 [1, 4]: > 200 µM

Molecule: O=c1[nH]cnc2c1ncn2[C@H]1O[C@@H](CO)[C@H](O)[C@@H]1O [GCI 1033, β-L-I]
- IC50 [1, 4]: > 200 µM

Molecule: Nc1nc2c(ncn2[C@H]2O[C@@H](CO)[C@H](O)[C@@H]2O)c(=O)[nH]1 [GCI 1030, β-L-G]
- IC50 [1, 4]: > 200 µM

Molecule: Nc1ccn([C@H]2C[C@@H](OP(=O)(O)OC[C@H]3O[C@@H](n4cc(F)c(=O)[nH]c4=O)C[C@@H]3O)[C@H](CO)O2)c(=O)n1 [L-111, 3'-O-(β-D-5-fluoro-2'-deoxyuridinyl)-α-L-2'-deoxycytidine]
- entry to the infected cell [2]: entered the infected cells
- In vitro activity against P. falciparum, in words [1]: most active; also recorded: no obvious difference in the activity
- IC50 [1, 4]: 38 µM
- IC50 [1, 6]: 38 µM
- IC50 [1, 7]: 38 µM
- toxicity against P. falciparum, in words [1]: toxic against P. falciparum

Molecule: α-L-dT, NBMPR [L-146]
- IC50 [1, 3]: > 200 µM

Molecule: O=c1ccn([C@@H]2C[C@@H](OP(O)(=S)OC[C@H]3O[C@@H](n4cc(F)c(=O)[nH]c4=O)C[C@@H]3O)[C@H](CO)O2)c(=O)[nH]1 (stereo partly drawn) [L-117 thio, β-L-dU, β-D-FUdR S = P-O]
- In vitro activity against P. falciparum, in words [1]: reduced dramatically
- IC50 ([1]; Plasmodium falciparum): > 200 µM
- IC50 ([1]; Plasmodium falciparum, 24 h): > 200 µM

Molecule: β-D-FUdR 3'SATE [B01]
- IC50 [1, 3]: 100 µM

Molecule: O=c1[nH]c(=O)n([C@@H]2OC[C@H](O)[C@@H]2O)cc1F [GCI 1007, α-L-erythrofuranosyl-5-fluorouracil]
- entry to the infected cell [2]: entered the infected cells
- IC50 [1, 4]: > 200 µM
- toxicity against P. falciparum, in words [1]: toxic against P. falciparum

Molecule: CNc1ncnc2c1ncn2[C@H]1O[C@@H](CO)[C@H](O)[C@@H]1O [GCI 1085, N^6 -methyl-β-L-A]
- IC50 [1, 4]: > 200 µM

Molecule: β-D-FUdR 5'SATE [B02]
- IC50 [1, 3]: 60 µM

Molecule: Nc1ncnc2c1ncn2[C@@H]1O[C@@H](CO)[C@H](O)[C@H]1O [GCI 1018, α-L-arabinofuranosyl adenine]
- IC50 ([1]; Plasmodium falciparum, 24 h): > 200 µM

Molecule: 6-thio-β-L-purine [GCI 1076]
- IC50 [1, 3]: > 200 µM

Molecule: O=c1[nH]c(=O)n([C@H]2C[C@@H](OP(O)(=S)OC[C@H]3O[C@@H](n4cc(F)c(=O)[nH]c4=O)C[C@@H]3O)[C@H](CO)O2)cc1F (stereo partly drawn) [L-103 thio, [α-L,β-D]-FUdR, S = P-O]
- In vitro activity against P. falciparum, in words [1]: reduced dramatically
- IC50 ([1]; Plasmodium falciparum): > 200 µM
- IC50 ([1]; Plasmodium falciparum, 24 h): > 200 µM

Molecule: β-D-FUdR, β-L-A [L-144]
- IC50 [1, 3]: 140 µM
- IC50 ([1]; Table 2, FUdR linkage position 3', read-out: IC50): 140 µM

Molecule: O=c1[nH]c(=O)n([C@H]2C[C@H](OP(O)(=S)OC[C@H]3O[C@@H](n4cc(F)c(=O)[nH]c4=O)C[C@@H]3O)[C@@H](CO)O2)cc1F (stereo partly drawn) [L-128, β-D, β-D-FUdR] S = P-O]
- In vitro activity against P. falciparum, in words [1]: only active phosphorothioate analog; also recorded: greater in comparison with all possible products of hydrolysis; also recorded: most active compound tested
- factor of increase in activity on replacing phosphate by phosphorothioate ([1]; L-128 versus L-101): 10
- IC50 ([1]; Plasmodium falciparum): 1.5 µM
- IC50 ([1]; Plasmodium falciparum, 24 h): 1.5 µM

Molecule: Nc1ncnc2c1ncn2[C@H]1CC[C@H](CO)O1 [GCI 1079, α-L-ddA]
- IC50 [1, 4]: > 200 µM

Molecule: Nc1ccn([C@@H]2C[C@@H](OP(=O)(O)OC[C@H]3O[C@@H](n4cc(F)c(=O)[nH]c4=O)C[C@@H]3O)[C@H](CO)O2)c(=O)n1 [L-113]
- IC50 [1, 4]: 17 µM
- IC50 [1, 6]: 17 µM
- IC50 ([1]; Plasmodium falciparum, Table 3, β-L configuration of the L-nucleoside, read-out: IC50): 17 µM

Molecule: Nc1ncnc2c1ncn2[C@H]1C[C@@H](O)[C@H](CO)O1 [GCI 1069, α-L-dA]
- entry to the infected cell [2]: entered the infected cells
- IC50 [1, 4]: > 200 µM
- toxicity against P. falciparum, in words [1]: toxic against P. falciparum

Molecule: Nc1ncnc2c1ncn2[C@@H]1CC[C@H](CO)O1 [GCI 1077, β-L-ddA]
- IC50 [1, 4]: > 200 µM

Molecule: Nc1ncnc2c1ncn2[C@@H]1C[C@@H](O)[C@H](CO)O1 [GCI 1036, β-L-Da]
- IC50 [1, 4]: > 200 µM

Molecule: Nc1ncnc2c1ncn2[C@H]1C[C@@H](OP(=O)(O)OC[C@H]2O[C@@H](n3cc(F)c(=O)[nH]c3=O)C[C@@H]2O)[C@H](CO)O1 [L-125, α-L-dA, β-D-FUdR]
- In vitro activity against P. falciparum, in words [1]: reduces the dimer activity in comparison with dimers containing the β-L unit
- IC50 [1, 4]: 60 µM
- IC50 [1, 6]: 60 µM
- IC50 [1, 7]: 60 µM

Molecule: β-L-FUdR 5'SATE [B04]
- IC50 [1, 3]: 200 µM

Molecule: O=c1[nH]c(=O)n([C@H]2C[C@H](O)[C@@H](CO)O2)cc1F [β-D-FUdR, β-D-5-fluoro-2'-deoxyuridine, reference compound]
- IC50 [1, 5]: 34 µM

Molecule: O=c1[nH]c(=O)n([C@@H]2C[C@@H](O)[C@H](CO)O2)cc1F [β-L-FUdR, β-L-5-fluoro-2'-deoxyuridine]
- IC50 ([1]; Plasmodium falciparum, Erythrocyte, 24 h, Table 6, SATE derivatives of FUdR, read-out: ID50 (the source's name)): > 200 µM
